Measured values published in EP1231468A1, “METHOD FOR DETECTING EXOGENOUS ENDOCRINE DISRUPTING CHEMICAL AND DETECTION APPARATUS” (Central Research Institute of Electric Power Industry, priority 1999, dated 2001).

Target: T1, human estrogen receptor α (Homo sapiens, UniProt P03372)
T1 sequence (P03372 1-595): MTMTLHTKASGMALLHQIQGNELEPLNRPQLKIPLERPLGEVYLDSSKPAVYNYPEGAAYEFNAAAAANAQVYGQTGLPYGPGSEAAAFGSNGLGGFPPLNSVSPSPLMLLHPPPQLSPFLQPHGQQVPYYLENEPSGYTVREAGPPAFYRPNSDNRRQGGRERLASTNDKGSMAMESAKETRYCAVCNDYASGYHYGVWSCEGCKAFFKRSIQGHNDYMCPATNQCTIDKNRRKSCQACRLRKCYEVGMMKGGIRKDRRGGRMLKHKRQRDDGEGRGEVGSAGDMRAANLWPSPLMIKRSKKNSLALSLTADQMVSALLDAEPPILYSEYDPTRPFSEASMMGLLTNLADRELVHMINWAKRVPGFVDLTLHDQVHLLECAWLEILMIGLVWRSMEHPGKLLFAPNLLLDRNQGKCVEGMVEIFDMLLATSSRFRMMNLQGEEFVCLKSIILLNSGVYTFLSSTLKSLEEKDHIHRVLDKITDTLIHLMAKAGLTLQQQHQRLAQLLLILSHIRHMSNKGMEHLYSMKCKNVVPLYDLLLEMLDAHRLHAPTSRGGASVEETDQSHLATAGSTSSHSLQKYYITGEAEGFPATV
Test: Competitive bonding of E2-BSA-CY5 and test substance to immobilized estrogen receptor, flow-type fluorescence detection
Assay type: binding
Settings: for inhibition of bonding of E2-BSA-CY5 to the receptor (reduction in fluorescence intensity): various concentrations added to E2-BSA-CY5 of fixed concentration, Fig. 3, Fig. 5; for range of concentration in which reduction in fluorescence intensity can be confirmed / substance can be detected: bonding inhibition ratio against concentration, Fig. 4, Fig. 6
Experimental: As an estrogen receptor, a human estrogen receptor α [manufactured by PanVela Corporation, Drive Madison, Wisconsin, USA] was used.
Immobilization of the estrogen receptor to a carrier (beads) was carried out by natural adsorption. […] 0.2 g of the beads was put in a small test tube, and suspended in 1 ml of a buffer for bonding (50 mM tris HCl, 500 mM KCl, 2mM DDT, 1mM EDTA, 10% glycerol, pH 7.8). 70 pmol of the estrogen receptor was put in this suspension, and blended for 30 minutes at a room temperature. Thereafter, 100 µl of bovine serum albumin was added so as to obtain the final concentration of 1 mg/ml. After addition, it is further blended for 30 minutes at a room temperature. Subsequently, the particles were washed by using the same buffer, again suspended in 30 ml of the same buffer, and used for measurement. It is to be noted that, as beads for comparison in which the estrogen receptor is not immobilized, those obtained by adding only bovine serum albumin to the beads were prepared by the similar operation.
In order to provide this fluorescence dye, a CY5 labeling kit [manufactured by Amersham Life Science, Arlington Heights, Illinois, USA] was used. The 17β-estradiol-bovine serum albumin having the fluorescence dye given thereto and the free fluorescence dye were partitioned by the gel filtration chromatography.
For measurement of a fluorescence intensity, a detector having a flow type fluorophotometer [manufactured by Sapidyne Instrument Inc., Boise, Idaho, USA] incorporated therein was used. […] The fluorescence intensity can be measured in units of an electrical signal by an excitation light source 3 and the detector 4 arranged with a glass cell 1 having a diameter of 1.5 mm and a length of 30 mm therebetween. The immobilized estrogen receptor 2 having the shape of beads is filled in the glass cell 1 by being banked up and laminated by a screen S consisting of 50 µm nylon mesh set in the glass cell 1. […] The material remaining between beads, which is not bonded to the receptor 2, is discharged from the direction indicated by an arrow b by leading only the buffer at a speed of 1.5 ml/min. Thereafter, the remaining fluorescence intensity was evaluated as a quantity of bonding. Specifically, the buffer for bonding was diluted with E2-BSA-CY5 so as to obtain approximately 400 ng/ml. It is to be noted that this concentration was appropriately adjusted in accordance with a ratio of provision of the fluorescence in E2-BSA-CY5. The same quantity of the buffer for bonding in which a natural hormone or a chemical substance with the already-known concentration was dissolved was added to the diluted solution and left to take its own course at a room temperature for 30 minutes. Incidentally, in case of a water-insoluble material, it was completely dissolved in dimethyl sulfoxide and then appropriately diluted. Further, it was left to stand and used for measurement.

| Molecule | inhibition of bonding of E2-BSA-CY5 to the receptor (reduction in fluorescence intensity) | range of concentration in which reduction in fluorescence intensity can be confirmed / substance can be detected |
| --- | --- | --- |
| C[C@]12CC[C@H]3[C@@H](CCC4=CC(=O)CC[C@@]43C)[C@@H]1CC[C@@H]2O [testosterone, reference compound] | did not inhibit |  |
| nonylphenol | the fluorescence intensity was lowered | 10^-9 to 10^-5 M |
| CC(C)(c1ccc(O)cc1)c1ccc(O)cc1 [bisphenol A] | the fluorescence intensity was lowered | 10^-8 to 10^-6 M |
